Entries after “also recorded” stand apart in the source; their conditions may differ. Read-outs that look alike come from different tables or passages of the source.
Assays:
[1] = Fatigue on repeated photoisomerization cycles; format: physicochemical
Protocol: Upon reaching PSS distribution with green light, thermal back-isomerization was followed in the dark for 14 h (gray background). After this period, violet light was applied (violet rectangle) for 8 min to confirm the presence of the remaining cis-isomer and estimate cis-to-trans ratio. Green light allowed for switching to the cis-isomer once again (green rectangle), showing that in situ isomerization is possible. c Reversible photochromism in cell culture medium followed at 312 nm absorbance. […] The thermally adapted sample is shown in black (dark), irradiated with green light in vitro (pre-incubation, shown in green), with violet light in cellulo (post-incubation, shown in gray), and with green light in vitro followed by violet light in cellulo in purple. The control experiment with longdaysin is also shown. Luminescence rhythm profiles and data for DMSO-treated cells are shown in Supplementary Figs. 25 and 26, respectively. Luminescence is given in arbitrary units. n = 3 biologically independent samples for the CKIα enzymatic assay (d), n = 2 biologically independent samples for the CKIδ enzymatic assay (d), and n = 3 biologically independent samples for the cellular assay (e). […]
Supplementary Figure 30. […] The spectrum is measured at pH 7.4 (0.1 mM in water) and in presence of 0.1 mM concertation of luciferin. […]

CKIα = biological target: T1, CKIα (Homo sapiens, UniProt P48729); assay: In vitro kinase assay (Kinase Glo), CKIα; format: biochemical
T1 construct: purchased Invitrogen PV3850
T1 sequence (P48729 whole entry): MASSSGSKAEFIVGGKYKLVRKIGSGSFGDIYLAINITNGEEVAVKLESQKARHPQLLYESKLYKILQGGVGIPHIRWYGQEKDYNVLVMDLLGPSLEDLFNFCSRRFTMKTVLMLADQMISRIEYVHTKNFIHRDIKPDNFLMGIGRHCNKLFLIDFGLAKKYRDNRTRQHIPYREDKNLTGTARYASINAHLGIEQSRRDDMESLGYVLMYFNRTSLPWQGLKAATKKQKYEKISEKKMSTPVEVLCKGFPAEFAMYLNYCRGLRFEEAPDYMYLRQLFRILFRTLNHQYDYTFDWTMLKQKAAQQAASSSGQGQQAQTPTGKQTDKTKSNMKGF
Protocol: A stock solution of 7.4 mM in DMSO was prepared and thermally adapted by heating to c.a. 100 °C for 1 min. Two series of eight samples were prepared with consecutive three-time dilutions from the stock solution. One of the series (‘dark’ samples) was prepared in dark Eppendorf tube, the other series (‘light’ samples) was pre-irradiated with UV light (365 nm, UV lamp Spectroline, ENB-280/FE, 1 × 8 Watt) for 45 min. For compound 9, 1 mM solution in DMSO was thermally adapted by heating to 80 °C for 2 min and split into two vials. One vial was kept in the dark and the other was irradiated with green light (530 nm, 3x Nichia NCSG219B-V1, 3 × 550 mW, Sahlmann Photochemical Solutions) for 60 min. Both dark-kept and irradiated samples were subjected to 8-point 3-fold dilutions. All the solutions were applied to the well plate under a red lamp in the dark room in order to prevent ambient-light-induced photo-isomerization.
The assays were performed on a white, solid-bottom 384-well plates. The total volume for the reaction is 10.5 µl. Firstly, a solution of CKI and peptide was added to the bottom of the well (9 µL). Next, a corresponding solution of the compound (0.5 μL, final 5% DMSO) followed by 50 μM ATP solution (1 μL) were pipetted into the upper corners of each well. The enzymatic reaction was started by spinning down the plate (1800 x g, 2 min).
By employing this method, all reactions were started at the same time, minimizing variance between different samples. Incubation for 3 h at 30 °C or 2 h at 37 °C allowed for the enzymatic phosphorylation of the substrate peptide. As the reaction started, the wells with ‘light’ samples were irradiated with UV light or kept in dark in case of experiment with compound 9. ‘Dark’ (0 min pre-irradiation) wells were covered with an aluminum sticker from the beginning. After the incubation, 10 μL Kinase Glo® (Promega) was applied into the wells and the luminescent signal was recorded by a plate reader (BioTek Synergy H1 or Cytation).
The total volume for the reaction was 10.5 µl. The reaction mixture contained the following: for CKIδ, 4 ng/µl CKIδ (14-520, Eurofins), 50 µM peptide substrate RKKKAEpSVASLTSQCSYSS corresponding to human PER2 Lys659-Ser674, and CKI buffer (40 mM Tris, 10 mM MgCl2, 0.5 mM DTT, 0.1 mg/ml BSA, pH7.4); for CKIα, 1 ng/µl CKIα (PV3850, Invitrogen), 50 µM CKI peptide substrate (60547-1, Anaspec), and CKI buffer.
The data obtained from the in vitro kinase assay was analyzed using GraphPad software, in which the luminescence outcome is normalized. Normalization is done using a luminescent output of the control that contained high concentration of longdaysin (370 µM) as 100% inhibition and DMSO for 0% inhibition. In all graphs, a dose-response fit was used to obtain

[2] = thermally adapted trans-isomer kept in the dark, read-out: CKIα IC50, dark

SMILES | fatigue upon repeated illumination cycles [1] | IC50 (CKIα; irradiated with UV light (365 nm) before and during the assay, cis-enriched, read-out: CKIα IC50, light) [µM] | IC50 (CKIα; [2]) [µM] | fold difference in CKIα inhibition between dark and UV-irradiated sample (CKIα; trans vs cis-enriched (365 nm), 5 is stronger under light, the others weaker) [fold] | potency relative to longdaysin (CKIα; CKI activity) | fold difference in CKIα IC50 between trans-form and cis-isomer (CKIα; green light 530 nm vs dark) [fold] | IC50 (CKIα; pre-irradiated with green light (530 nm), 86% cis, read-out: CKIα IC50, 530 nm) [µM]
Cc1nn(C)c(C)c1/N=N/c1cccc(CNc2ncnc3c2ncn3C(C)C)c1 [Compound 8] | low fatigue | 24 | 3 | 8 |  |  | 
CC(C)n1cnc2c(NCc3ccc(F)c(/N=N/c4c(F)cccc4F)c3F)ncnc21 [Compound 9] | very low fatigue; also recorded: Almost no fatigue |  | 5.3 |  | comparable to that of longdaysin | 1.5 | 8.2

Source: paper PMC8155176, “Reversible modulation of circadian time with chronophotopharmacology” (Nature Communications, 2021)
